# Source: patent US10100051B2, “Compound of 5-hydroxyl-1,7-naphthyridine substituted by aryloxy or heteroaryloxy, preparation method thereof and pharmaceutical use thereof” (SHENYANG SUNSHINE PHARMACEUTICAL CO. LTD., priority 2015, dated 2018)
# Where “and” joins values, the source holds several entries; their conditions need not be identical. Identical values can stand only once.
# Test system: male Balb/c mice
# Test: Effect on increasing erythrocyte of normal mice (reticulocyte count)
# Format: in vivo
# Parameters: unit not given here
# Description: Biological Example 3: Effect of the Compounds of the Present Invention on Increasing Erythrocyte of Normal Mice
# […] male Balb/c mice were divided into 11 groups, with 8 animals for each drug group, 10 animals for blank control group. Drug group: AKB-6548, 100 mg/kg, oral administration, once a day×3; FG-4592, 25 mg/kg, oral administration, once a day×3; EPO, 100 IU/kg, Day 1 and Day 3, subcutaneous injection, as positive control groups. Each of the compounds of the present invention was orally administrated at 25 mg/kg, once a day×3. Four hours after the last administration, orbital blood of all animals were collected and treated with EDTA-K2 anticoagulant, and reticulocytes (RETIC) were counted with a blood cell automated analyzer.
# [1] = 100 mg/kg oral, once a day × 3, four hours after the last administration
# [2] = 25 mg/kg oral, once a day × 3, four hours after the last administration
# [3] = 100 IU/kg subcutaneous injection, Day 1 and Day 3, four hours after the last administration
Molecule,"RETIC, Average [2]","RETIC, individual mice [2]",further results
"O=C(O)CNC(=O)c1ncc(-c2cccc(Cl)c2)cc1O [AKB-6548-A, reference compound]",,,"RETIC, Average [1]: 4.75; RETIC, individual mice [1]: 6.1 and 4 (2×) and 4.2 (2×) and 4.9 and 5.3 (2×)"
"Cc1nc(C(=O)NCC(=O)O)c(O)c2ccc(Oc3ccccc3)nc12 [Compound 1, 2-(5-hydroxy-8-methyl-2-phenoxy-1,7-naphthyridine-6-formamido) acetic acid]",4.73,4.4 and 5.2 and 4.8 and 5 and 5.3 and 4.1 (2×) and 4.9,
"Cc1nc(C(=O)NCC(=O)O)c(O)c2ccc(Oc3ccc4c(c3)OCCO4)nc12 [Compound 12, 2-(2-((2,3-dihydrobenzo[b][1,4]dioxo-6-yl)oxy)-5-hydroxy-8-methyl-1,7-naphthyridine-6-formamido) acetic acid]",5.24,5.4 and 5 (3×) and 6 and 5.6 (2×) and 4.3,
"COc1ccc(Oc2ccc3c(O)c(C(=O)NCC(=O)O)nc(C)c3n2)cc1 [Compound 14, 2-(5-hydroxy-2-(4-methoxyphenoxy)-8-methyl-1,7-naphthyridine-6-formamido) acetic acid]",5.73,6.1 and 6.6 and 5.8 (2×) and 6.5 and 5.7 and 4.4 and 4.9,
"Cc1nc(C(=O)NCC(=O)O)c(O)c2ccc(Oc3ccccc3)cc12 [FG-4592-A, reference compound]",3.73,3.8 (2×) and 4 (2×) and 3.5 and 4.4 and 3.4 and 3.6,
"EPO: erythropoietin, glycoprotein hormone; exogenous positive control given subcutaneously",,,"RETIC, Average [3]: 3.73; RETIC, individual mice [3]: 5.9 and 2.5 and 2.2 (2×) and 2.6 and 4.3 and 5.1 and 5"
